Laboratory results: patent US10155754B2, “Substituted 2-imino-1,3-thiazolidin-4-ones as N-arachidonoylethanolamine cellular uptake inhibitors” (UNIVERSITAT BERN, priority 2014, dated 2018)

Key:
[1] = system: AEA cellular uptake (U937 cells); test: [3H]-AEA cellular uptake inhibition in U937 cells; type: cell-based; conditions: Homo sapiens, U-937, U937 cells, final 100 nM AEA with 0.5 nM [3H]-AEA, 15 min at 37° C.; read-out: AEA uptake IC50
In short: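 U937 cells (0.5×10^6 per sample) pre-incubated with compound (100 pM–100 μM, triplicates) for 15 min at 37 °C, then given 100 nM AEA including 0.5 nM [3H]-AEA for 15 min. Filtration, washing and scintillation counting of cell-associated radioactivity; IC50 by four-parameter nonlinear regression.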

FAAH = target: T1, FAAH (Homo sapiens, UniProt O00519); test: FAAH activity: hydrolysis of [3H]-AEA in U937 cell homogenates; type: biochemical; conditions: [3H]-AEA hydrolysis, final 100 nM AEA, read-out: FAAH inhibition IC50
T1 construct: endogenous in cells; host or cells: U937 cell homogenate
T1 sequence (O00519 1-579): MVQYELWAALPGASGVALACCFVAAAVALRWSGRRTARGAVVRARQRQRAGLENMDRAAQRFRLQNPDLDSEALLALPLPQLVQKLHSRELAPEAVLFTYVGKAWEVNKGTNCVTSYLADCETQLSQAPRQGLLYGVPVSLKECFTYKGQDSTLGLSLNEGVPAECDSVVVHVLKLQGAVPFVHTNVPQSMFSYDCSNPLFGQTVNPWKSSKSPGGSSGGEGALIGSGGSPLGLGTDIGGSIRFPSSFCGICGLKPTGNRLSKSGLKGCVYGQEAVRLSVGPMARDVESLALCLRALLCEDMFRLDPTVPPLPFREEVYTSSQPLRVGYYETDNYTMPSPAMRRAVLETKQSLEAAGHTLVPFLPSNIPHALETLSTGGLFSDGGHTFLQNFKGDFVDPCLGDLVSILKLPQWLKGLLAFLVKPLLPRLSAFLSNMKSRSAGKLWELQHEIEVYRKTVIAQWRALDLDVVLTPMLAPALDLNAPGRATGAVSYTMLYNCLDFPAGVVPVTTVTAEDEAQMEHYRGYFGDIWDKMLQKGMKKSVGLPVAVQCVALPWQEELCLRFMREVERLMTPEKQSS
Description: Hydrolysis of [^3H]-AEA by FAAH was determined as previously described in cell homogenates of U937 cells (0.18 mg protein) (Omeir et al., 1999, Biochem Biophys Res Commun, 264, 316-20; Mor et al., 2004, J Med Chem, 47, 4998-5008). Protein amounts of cell homogenates corresponded to 0.5×10^6 cells (U937), to assure best possible comparability of IC50 values as used for the AEA cellular uptake assays. URB597 was used as positive control. Protein quantification was performed using a BCA assay (Thermo Scientific). Enzyme activity was assessed by addition of vehicle or compounds in 10 μL DMSO to 490 μL homogenate in 10 mM Tris HCl, 1 mM EDTA, 0.1% (w/v) BSA fatty acid free, pH=8 and incubation for 15 min at 37° C. After, a mixture of AEA plus [ethanolamine-1-^3H]-AEA (0.5 nM) at final 100 nM was added to the homogenates and incubated for 15 min at 37° C. The reaction was stopped by addition of 1 mL ice-cold CHCl3:MeOH (1:1) followed by vigorous vortexing. Phase separation was achieved by centrifugation at 10'000×g at 4° C. for 10 min. Radioactivity of the separated aqueous phase (upper phase) containing [^3H-ethanolamine] or [^3H-glycerol] was measured by liquid scintillation counting on a Tri-Carb 2100 TR liquid scintillation analyzer after addition of 3.5 mL Ultima Gold scintillation cocktail (PerkinElmer Life Sciences). Results are expressed as hydrolysis of tritium substrate in percent of vehicle treated control. IC50 values were calculated by GraphPad®. Data are reported as means of n=3 independent experiments performed in triplicates.

IC50 [1] | IC50 (FAAH) | Structure (SMILES)
162 nM | > 100000 nM | CC(C)CN1C(=O)/C(=C/c2ccc3c(c2)OCCO3)S/C1=N\c1ccc(F)cc1 [24_B_X, (2Z,5Z)-2-(4-fluorophenylimino)-5-((2,3-dihydrobenzo[b][1,4]dioxin-6-yl)methylene)-3-isobutylthiazolidin-4-one]
170 nM | 1590 nM | O=C1/C(=C/c2ccc3c(c2)OCCO3)S/C(=N\Cc2ccccc2)N1c1ccccc1 [24_C_N, (2Z,5Z)-2-(benzylimino)-5-((2,3-dihydrobenzo[b][1,4]dioxin-6-yl)methylene)-3-phenylthiazolidin-4-one]
939 nM | > 100000 nM | COc1ccc(/N=C2\S/C(=C\c3ccc4c(c3)OCCO4)C(=O)N2c2ccccc2)cc1 [24_F_N, (2Z,5Z)-2-(4-methoxyphenylimino)-5-((2,3-dihydrobenzo[b][1,4]dioxin-6-yl)methylene)-3-phenylthiazolidin-4-one]
334 nM | > 100000 nM | Cc1ccc(N2C(=O)/C(=C/c3ccc4c(c3)OCCO4)S/C2=N\c2ccccc2)cc1 [24_N_A, (2Z,5Z)-5-((2,3-dihydrobenzo[b][1,4]dioxin-6-yl)methylene)-2-(phenylimino)-3-p-tolylthiazolidin-4-one]
667 nM | > 100000 nM | O=C1/C(=C/c2ccc3c(c2)OCCO3)S/C(=N\c2ccccc2)N1c1ccc(F)cc1 [24_N_B, (2Z,5Z)-3-(4-fluorophenyl)-5-((2,3-dihydrobenzo[b][1,4]dioxin-6-yl)methylene)-2-(phenylimino)thiazolidin-4-one]
462 nM | > 100000 nM | O=C1/C(=C/c2ccc3c(c2)OCCO3)S/C(=N\c2ccccc2)N1C1CCCCC1 [24_N_I, (2Z,5Z)-3-cyclohexyl-5-((2,3-dihydrobenzo[b][1,4]dioxin-6-yl)methylene)-2-(phenylimino)thiazolidin-4-one]
172 nM | > 100000 nM | CC(C)CN1C(=O)/C(=C/c2ccc3c(c2)OCCO3)S/C1=N\c1ccccc1 [24_N_X, (2Z,5Z)-5-((2,3-dihydrobenzo[b][1,4]dioxin-6-yl)methylene)-3-isobutyl-2-(phenylimino)thiazolidin-4-one]
176 nM | 1510 nM | Cc1ccc(N2C(=O)/C(=C/c3ccc4c(c3)OCCO4)S/C2=N\Cc2ccc(F)cc2)cc1 [24_P_A, (2Z,5Z)-2-(4-fluorobenzylimino)-5-((2,3-dihydrobenzo[b][1,4]dioxin-6-yl)methylene)-3-p-tolylthiazolidin-4-one]
1040 nM | 11200 nM | O=C1/C(=C/c2ccc3c(c2)OCCO3)S/C(=N\Cc2ccc(F)cc2)N1c1ccc(F)cc1 [24_P_B, (2Z,5Z)-2-(4-fluorobenzylimino)-3-(4-fluorophenyl)-5-((2,3-dihydrobenzo[b][1,4]dioxin-6-yl)methylene)thiazolidin-4-one]
87 nM | 170 nM | O=C1/C(=C/c2ccc3c(c2)OCCO3)S/C(=N\Cc2ccc(F)cc2)N1C1CCCCC1 [24_P_I, (2Z,5Z)-2-(4-fluorobenzylimino)-3-cyclohexyl-5-((2,3-dihydrobenzo[b][1,4]dioxin-6-yl)methylene)thiazolidin-4-one]
51 nM | 617 nM | O=C1/C(=C/c2ccc3c(c2)OCCO3)S/C(=N\Cc2ccc(F)cc2)N1c1ccc(Cl)cc1 [24_P_L, (2Z,5Z)-2-(4-fluorobenzylimino)-3-(4-chlorophenyl)-5-((2,3-dihydrobenzo[b][1,4]dioxin-6-yl)methylene)thiazolidin-4-one]
530 nM | 912 nM | O=C1/C(=C/c2ccc3c(c2)OCCO3)S/C(=N\Cc2ccc(F)cc2)N1c1ccccc1 [24_P_N, (2Z,5Z)-2-(4-fluorobenzylimino)-5-((2,3-dihydrobenzo[b][1,4]dioxin-6-yl)methylene)-3-phenylthiazolidin-4-one]
509 nM | 2630 nM | CC(C)CN1C(=O)/C(=C/c2ccc3c(c2)OCCO3)S/C1=N\Cc1ccc(F)cc1 [24_P_X, (2Z,5Z)-2-(4-fluorobenzylimino)-5-((2,3-dihydrobenzo[b][1,4]dioxin-6-yl)methylene)-3-isobutylthiazolidin-4-one]
164 nM | > 100000 nM | COc1ccc(C/N=C2\S/C(=C\c3ccc4c(c3)OCCO4)C(=O)N2c2ccc(C)cc2)cc1 [24_Q_A, (2Z,5Z)-2-(4-methoxybenzylimino)-5-((2,3-dihydrobenzo[b][1,4]dioxin-6-yl)methylene)-3-p-tolylthiazolidin-4-one]
33 nM | 1290 nM | COc1ccc(C/N=C2\S/C(=C\c3ccc4c(c3)OCCO4)C(=O)N2c2ccc(F)cc2)cc1 [24_Q_B, (2Z,5Z)-2-(4-methoxybenzylimino)-3-(4-fluorophenyl)-5-((2,3-dihydrobenzo[b][1,4]dioxin-6-yl)methylene)thiazolidin-4-one]
35 nM | 37 nM | COc1ccc(C/N=C2\S/C(=C\c3ccc4c(c3)OCCO4)C(=O)N2C2CCCCC2)cc1 [24_Q_I, (2Z,5Z)-2-(4-methoxybenzylimino)-3-cyclohexyl-5-((2,3-dihydrobenzo[b][1,4]dioxin-6-yl)methylene)thiazolidin-4-one]
85 nM | 813 nM | COc1ccc(C/N=C2\S/C(=C\c3ccc4c(c3)OCCO4)C(=O)N2c2ccc(Cl)cc2)cc1 [24_Q_L, (2Z,5Z)-2-(4-methoxybenzylimino)-3-(4-chlorophenyl)-5-((2,3-dihydrobenzo[b][1,4]dioxin-6-yl)methylene)thiazolidin-4-one]
373 nM | 437 nM | COc1ccc(C/N=C2\S/C(=C\c3ccc4c(c3)OCCO4)C(=O)N2c2ccccc2)cc1 [24_Q_N, (2Z,5Z)-2-(4-methoxybenzylimino)-5-((2,3-dihydrobenzo[b][1,4]dioxin-7-yl)methylene)-3-phenylthiazolidin-4-one]
137 nM | 427 nM | COc1ccc(C/N=C2\S/C(=C\c3ccc4c(c3)OCCO4)C(=O)N2CC(C)C)cc1 [24_Q_X, (2Z,5Z)-2-(4-methoxybenzylimino)-5-((2,3-dihydrobenzo[b][1,4]dioxin-6-yl)methylene)-3-isobutylthiazolidin-4-one]
389 nM | > 100000 nM | Cc1ccc(/N=C2\S/C(=C\c3ccc4c(cnn4C)c3)C(=O)N2C2CCCCC2)cc1 [28_A_I, (2Z,5Z)-2-(p-tolylimino)-3-cyclohexyl-5-((1-methyl-1H-indazol-5-yl)methylene)thiazolidin-4-one]
351 nM | > 100000 nM | Cc1ccc(/N=C2\S/C(=C\c3ccc4c(cnn4C)c3)C(=O)N2CC(C)C)cc1 [28_A_X, (2Z,5Z)-2-(p-tolylimino)-3-isobutyl-5-((1-methyl-1H-indazol-5-yl)methylene)thiazolidin-4-one]
341 nM | > 100000 nM | Cc1ccc(/N=C2\S/C(=C\c3ccc4ncsc4c3)C(=O)N2C2CCCCC2)cc1 [32_A_I, (2Z,5Z)-2-(p-tolylimino)-5-((benzo[d]thiazol-6-yl)methylene)-3-cyclohexylthiazolidin-4-one]
327 nM | > 100000 nM | Cc1ccc(/N=C2\S/C(=C\c3ccc4ncsc4c3)C(=O)N2CC(C)C)cc1 [32_A_X, (2Z,5Z)-2-(p-tolylimino)-5-((benzo[d]thiazol-6-yl)methylene)-3-isobutylthiazolidin-4-one]
194 nM | > 100000 nM | O=C1/C(=C/c2ccc3[nH]cnc3c2)S/C(=N\c2ccccc2)N1c1ccccc1 [compound 04, (2Z,5Z)-5-((1H-benzo[d]imidazol-5-yl)methylene)-3-phenyl-2-(phenylimino)thiazolidin-4-one]
817 nM | > 100000 nM | O=C1/C(=C/c2ccc3c(c2)OCCO3)S/C(=N\c2ccccc2)N1c1ccccc1 [compound 24, (2Z,5Z)-5-((2,3-dihydrobenzo[b][1,4]dioxin-6-yl)methylene)-3-phenyl-2-(phenylimino)thiazolidin-4-one]
